As a reminder, the IC50 is the midpoint of a concentration-inhibition curve. Read a high IC50 as lower potency.

Molecules are shown by their SMILES.

The values that follow come from patent publication US20190119200A1, “TERTIARY AMIDES AND METHOD OF USE” (AbbVie Inc., priority 2016, published 2019).

In test [1] the test system is UUO mice (kidney fibrosis). The test can be described thus: Mouse unilateral ureteral obstruction (UUO) kidney fibrosis model. It is filed as in vivo. To be noted: male CD-1 mice, 30 mg/kg po twice daily D-1 to D6, compared to vehicle treated UUO group. Here is the method: All animal handling and experimental protocols were approved by AbbVie's Institutional Animal Care and Use Committee (IACUC) and were conducted in accordance with the ethical principles for pain-related animal research of the American Pain Society. Male CD-1 mice (28-30 g, Charles River) were group housed 10 per cage, housed in a temperature controlled room with a 12/12-hour day/night cycle, with food (2018 Tekland Global 18% protein rodent diet, Harlan®) and water available ad libitum. Mice underwent either complete unilateral ureter obstruction (UUO) or sham surgery to the left kidney. Briefly, animals were anesthetized with isoflurane, and the left ureter was visualized via a flank incision. Using 6-0 silk sutures, the ureter was tied off at two points near the renal pelvis and then completely cut between ligations (ligation step omitted for sham operated animals). The abdominal muscle was sutured and the skin closed using standard wound clips. Test compound or vehicle was delivered twice daily (30 mg/kg, po) via oral gavage, starting on the day before surgery (D-1) and continuing through day 6 after surgery (D6), at which time animals were sacrificed and kidney tissues collected. […] Statistical significance was determined by using a one-way analysis of variance (ANOVA) followed by a Bonferroni post-hoc test and was conducted using GraphPad prism.

The target of test [2] is T1, LPAR1 (Homo sapiens, UniProt Q92633).
T1 construct: host or cells: U2OS
T1 sequence (Q92633 whole entry): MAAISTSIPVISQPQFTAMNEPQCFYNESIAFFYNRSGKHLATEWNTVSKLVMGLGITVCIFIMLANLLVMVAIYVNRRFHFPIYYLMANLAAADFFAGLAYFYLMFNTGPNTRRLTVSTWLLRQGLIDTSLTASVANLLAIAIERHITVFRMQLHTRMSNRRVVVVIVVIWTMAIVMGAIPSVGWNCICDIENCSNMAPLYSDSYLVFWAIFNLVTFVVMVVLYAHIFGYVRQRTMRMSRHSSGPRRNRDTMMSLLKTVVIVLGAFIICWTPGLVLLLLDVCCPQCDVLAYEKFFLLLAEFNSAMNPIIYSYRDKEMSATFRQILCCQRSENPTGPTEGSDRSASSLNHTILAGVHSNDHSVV
The test can be described thus: LPAR1 Arrestin Assay (arrestin reporter assay). It is filed as cell-based. To be noted: U2OS cells stably expressing the LPAR1 receptor, 200 nM 18:1 LPA (EC80); for Emax: read-out: Maximum Inhibition. In a few lines:
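U2OS cells stably expressing LPAR1 pretreated 1 h at 37° C with compound, then stimulated 5 h with 200 nM 18:1 LPA (EC80), 0.1% DMSO, 0.02% BSA. β-lactamase reporter read by CCF4-AM FRET (460/530 nm emission) after 2 h dye load; 12-point curves, duplicate, n≥3.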

With `COc1cc(OC)cc(C(=O)N(CCCCC(=O)O)CCCc2ccccc2)c1` [Example 7, 5-[(3,5-dimethoxybenzoyl)(3-phenylpropyl)amino]pentanoic Acid], in test [1], the “reduction in Col1a1 expression” value is recorded as −46% and the “reduction in tubulointerstitial fibrosis as measured by PSR” value is −53%. In test [2], the IC50 came to 713 nM and the Emax was found to be 108%.
In the case of `COc1cc(C(=O)N(CCCc2ccccc2)CCC[C@@H](C)C(=O)O)cc(OC)c1C` (single isomer, unassigned) [Example 77], in test [2], 5 nM corresponded to half-maximal inhibition (IC50) and the Emax came out at 102%.
As for `COc1cc(C(=O)N(CCCCC(=O)O)CCCc2ccccc2F)cc(OC)c1C` [Example 32, 5-{(3,5-dimethoxy-4-methylbenzoyl)[3-(2-fluorophenyl)propyl]amino}pentanoic Acid], in test [2], half-maximal inhibition (IC50) was put at 76 nM and the Emax came out at 112%.
The matching figures for `COc1cc(C(=O)N(CCCc2cccc(F)c2)CCSCC(=O)O)cc(OC)c1C` [Example 117, [(2-{(3,5-dimethoxy-4-methylbenzoyl)[3-(3-fluorophenyl)propyl]amino}ethyl)sulfanyl]acetic Acid]: 103 nM and 116%.
`COc1cc(C(=O)N(CCCc2ccccc2F)CCSCC(=O)O)cc(OC)c1C` [Example 116, [(2-{(3,5-dimethoxy-4-methylbenzoyl)[3-(2-fluorophenyl)propyl]amino}ethyl)sulfanyl]acetic Acid]: in test [2], the midpoint of inhibition, the IC50, lay at 281 nM and the Emax is 108%.
On the same counts, the results for `COc1cc(C(=O)N(CCCc2cccc(Cl)c2)CCOCC(=O)O)cc(OC)c1C` [Example 109, (2-{[3-(3-chlorophenyl)propyl](3,5-dimethoxy-4-methylbenzoyl)amino}ethoxy)acetic Acid] are 139 nM and 111%.
